Test results as given in US20230372361A1, “USE OF OXYGENATED CHOLESTEROL SULFATES FOR TREATING INFLAMMATORY CONDITIONS” (Durect Corporation, priority 2020, published 2023).
Like-named read-outs stand apart in the source and are kept apart here.

Experiments:
Huh-7 cells = assay: Global methylation, LINE-1 assay (pyrosequencing); format: cell-based, human; settings: HG media, 25HC3S for 4 hours
Protocol: Each sample, 2 was sent to […], Inc. (Hopkinton, MA) for analysis of global methylation bisulfite sequencing. The same samples, 6 μg, were sent to Novogene Co., Ltd (Tianjin, China) for analysis of whole genome bisulfite sequencing (WGBS). Total RNA was isolated using the Promega SV total RNA isolation system (Madison, WI) with DNase treatment. […] Real-time RT-PCR was performed using SYBR Green as the indicator on ABI 7500 Fast Real-Time PCR System (Applied Biosystems, Foster City, CA). Amplifications of β-actin or GAPDH were used as internal controls. Relative messenger RNA (mRNA) expression was quantified with the comparative cycle threshold (Ct) method using the primer set shown in Table 1.1 and was expressed as 2^-ΔΔct. […] PCR reaction and product purification were performed as per the manufacturer's protocol (GE Healthcare Life Sciences). The PCR products, 10 μl, were sequenced by Pyrosequencing on the PSQ96 HS System following the manufacturer's instructions (Pyrosequencing, Qiagen). The methylation status of each CpG site was determined individually as an artificial C/T SNP using QCpG software (Pyrosequencing, Qiagen). The methylation level at each CpG site was calculated as the percentage of the methylated alleles divided by the sum of all methylated and unmethylated alleles. The mean methylation level was calculated using methylation levels of all measured CpG sites within the targeted region of each gene. Each experiment included non-CpG cytosines as internal controls to detect incomplete bisulfite conversion of the input DNA. In addition, a series of unmethylated and methylated DNA were included as controls in each PCR assay. Furthermore, PCR bias testing was performed by mixing unmethylated control DNA with in vitro methylated DNA at different ratios (0%, 5%, 10%, 25%, 50%, 75%, and 100%), followed by bisulfite modification, PCR, and Pyro-sequencing analysis.

[1] = Plasma pharmacokinetics of radioactivity, single intravenous dose; format: in vivo, male Sprague Dawley rats; settings: single intravenous (bolus) dose 10 mg/kg; total radioactivity
Protocol: (§1) Nine male Sprague Dawley rats (Group 1) were designated for the pharmacokinetic phase, 3 male Sprague Dawley rats (Group 2) for the excretion mass balance phase, and 7 male Sprague Dawley rats (Group 3) and 9 male Long Evans rats (Group 4) for the tissue distribution phase. All animals received a single intravenous dose of [^14C]-25HC3S at 10 mg/kg and a target radioactivity of 225 μCi/kg. Blood samples were collected from all Group 1 animals at approximately 0.083, 0.25, 0.5, 1, 2, 4, 8, 12, 24, 48, and 72 hours post-dose. Urine and feces were collected from all Group 2 animals periodically through 168 hours post-dose. […] Following blood collection, animals were euthanized by CO2 inhalation and carcasses frozen in a dry ice/hexane bath for processing by quantitative whole body autoradiography. Whole blood, plasma, urine, feces, cage rinse, and cage wash were analyzed for total radioactivity by liquid scintillation counting.

[2] = Tissue distribution by quantitative whole body autoradiography, intravenous; format: in vivo, male Sprague Dawley rats; settings: iv 10 mg/kg
Protocol: as §1

[3] = Tissue distribution by quantitative whole body autoradiography, intravenous, pigmented animals; format: in vivo, male Long Evans rats; settings: iv 10 mg/kg
Protocol: as §1

[4] = Metabolite profiling of plasma, urine, feces after intravenous dose (HPLC radiodetection, MS); format: in vivo, rats; settings: iv 10 mg/kg
Protocol: Plasma pools were made from Group 1 rats at the 0.083, 0.25, 0.5, and 1-hour collection time points.
Urine pools were prepared for Group 2 at 0 to 6 and 6 to 12 hours post-dose. […] Four metabolites present at <10% relative observed intensity in at least 1 sample were M7 (<5% relative observed intensity), M16 (<3% relative observed intensity), M19 (<6% relative observed intensity), and M25 (<5% relative observed intensity).
Feces pools were prepared for Group 2 at 0 to 12, 12 to 24, and 24 to 48 hours post-dose.

[5] = set-up: species or system rats; settings: rat, in vivo, po, 75 mg/kg
Protocol: The terminal elimination phase T1/2 was 27.3 hours.

[6] = set-up: species or system rats; settings: Sprague Dawley, rat, in vivo, po, 75 mg/kg
[7] = rat, in vivo, po, 75 mg/kg
Protocol: Pancreas and liver concentrations ranged from 23,500 ng equiv./g to 28,100 ng equiv./g. Uveal tract and brain concentrations were lowest relative to the other tissues and were approximately 1000 ng equiv./g. Skin, thymus, prostate, and pituitary tissue concentrations were <3000 ng equiv./g. Remaining tissues had concentrations between 3600 ng-equiv./g and 10,700 ng equiv./g. […] As calculated using AUClast, the tissue:plasma ratios were highest for the small intestine (wall, 15.4) followed by the liver and adrenal gland at 6.96 and 6.64, respectively. High liver and small intestine concentrations are consistent with oral administration and biliary (fecal) excretion.

[8] = Metabolite profiling of plasma and feces after oral dose (radio-HPLC, HPLC/MS); set-up: species or system rats; settings: Sprague Dawley, rat, in vivo, 75 mg/kg
Protocol: Radiolabeled components in plasma and feces extracts were profiled and identified using radio-high performance liquid chromatography (HPLC) and high performance liquid chromatography/mass spectrometry (HPLC/MS) methods.
Plasma pools were prepared for Group 1 (75 mg/kg, [14C]-25HC3S) samples collected at 2, 4, and 6 hours post-dose. […] One metabolite M29 was identified as 25-hydroxycholesterol with 37% ROI and a concentration of 1233 ng-equiv./g.
Feces pools were prepared for Group 2 (75 mg/kg, [^14C]-25HC3S) samples collected from 0 to 24, 24 to 48, 48 to 72, 72 to 96, 96 to 120, 120 to 144, and 144 to 168 hours post-dose. A total of eleven metabolites were identified. None of the metabolites were present at ≥5% of dose. Metabolites present at 2-5% of dose were M1(4.5% of total dose and 1%-69% ROI), M3 (4.6% of total dose and 1%-44% ROI), M4 (2.0% of total dose and 0%-10% ROI), M8 (3.1% of total dose and 1%-46% ROI), M29 (1.9% of total dose and 0%-2% ROI), and M30 (3.3% of total dose and 0%-5% ROI).

mean plasma C0 [1]: 25,900 ng-equiv./g | plasma:whole blood AUClast ratio [2]: 0.79 | tissue:plasma ratio, liver ([2]; calculated using AUClast): 11.4 | tissue:plasma ratio, small intestine (wall) ([2]; calculated using AUClast): 7.44 | AUClast in liver ([2]; derived radioactivity): ≤ 364,000 h·ng/g | binding to pigmented or non-pigmented skin or the uveal tract [3]: no difference | plasma or whole blood concentrations versus Sprague Dawley rats ([3]; first 168 hours post-dose): no substantial difference | amount in feces ([4]; pools 0 to 48 hours post-dose): 2 % of dose | share of the exposure (AUC) to 25HC3S related radioactivity in plasma ([4]; up to 1 hour post-dose): approximately 54% | plasma Cmax [5]: 3800 ng equiv./g | dose recovered in urine, feces, and cage rinse [6]: approximately 94.5 % of the dose | tissue:plasma ratio, adrenal gland ([7]; male, Sprague Dawley): 6.64 | tissue:plasma ratio, liver ([7]; male, Sprague Dawley): 6.96 | tissue:plasma ratio, small intestine (wall) ([7]; male, Sprague Dawley): 15.4 | Cmax in small intestine (wall) [7]: 424,000 ng equiv./g | Cmax in stomach (wall) [7]: 204,000 ng equiv./g | whole blood AUClast [7]: 127,000 h·ng equiv./g | ROI in feces [8]: 0-88% | amount in feces [8]: 71.1 % of total dose
SMILES: C[C@H](CCCC(C)(C)O)[C@H]1CC[C@H]2[C@@H]3CC=C4C[C@@H](OS(=O)(=O)O)CC[C@]4(C)[C@H]3CC[C@]12C [25HC3S, 25-hydroxycholesterol-3-sulfate]
Reduction of methylation (demethylation) at LINE-1 Pos1 (Huh-7 cells): −5% | Reduction of methylation (demethylation) at LINE-1 Pos3 (Huh-7 cells): −10% | Reduction of methylation (demethylation) at LINE-1 Pos 4 (Huh-7 cells): −5.6% | tissue concentrations by 168 hours post-dose [2]: below quantitation limit in all tissues except adrenal gland, harderian gland, liver, and small intestine | tissue distribution of parent and/or metabolites ([2]; Group 3): broadly distributed and detected by quantitative whole body autoradiography in all tissues except the eye (lens) | tissue concentrations by 168 hours post-dose [7]: near or below the quantitation limit in all tissues except adrenal gland and liver | tissue distribution of parent and/or metabolites [7]: broadly distributed and detected by quantitative whole body autoradiography in all tissues except the eye (lens)
